Literature values, collected in paper PMC7927942 (Journal of chemical information and modeling, 2020).

Biological target: wild-type JAK2 JH2 (Homo sapiens, UniProt O60674)
Conditions: benchmark ligand from high-throughput screen

wild-type JAK2 JH2, sequence (O60674 545-809 limits assumed): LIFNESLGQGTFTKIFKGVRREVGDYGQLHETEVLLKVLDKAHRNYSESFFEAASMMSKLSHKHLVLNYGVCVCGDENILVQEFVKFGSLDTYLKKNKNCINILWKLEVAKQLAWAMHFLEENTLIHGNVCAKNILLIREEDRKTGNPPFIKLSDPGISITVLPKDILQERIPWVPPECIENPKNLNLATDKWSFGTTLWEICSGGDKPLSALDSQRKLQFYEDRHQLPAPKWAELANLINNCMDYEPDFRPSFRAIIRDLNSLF

- % binding at 50 μM: 9%
SMILES: O=C(Nc1nc2cccc(-c3ccc(CN4CCS(=O)(=O)CC4)cc3)n2n1)C1CC1 [filgotinib]
